Reference: ChEMBL document CHEMBL1201862, “PubChem BioAssay data set” (2004)
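48-hour exposure; five concentrations; linearly interpolated endpoints. Here, GI50 denotes the concentration required for 50% inhibition of growth.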 Calls of active or inactive are those of the source. Cut-off read from the data, not from the text of the source: active = GI50 up to about 1.1 µM and inactive = higher.

What was measured:
Experiment in all cases: NCI-60 cell line screen, 48 h
[1] = tested on: CCRF-CEM
[2] = tested on: COLO 205
[3] = tested on: HCC 2998
[4] = tested on: HCT-116
[5] = tested on: HL-60
[6] = tested on: HOP-92
[7] = tested on: IGROV-1
[8] = tested on: K562
[9] = tested on: MDA-MB-435
[10] = tested on: OVCAR-3
[11] = tested on: OVCAR-5
[12] = tested on: OVCAR-8
[13] = tested on: PC-3
[14] = tested on: RPMI-8226
[15] = tested on: SN12C
[16] = tested on: SNB-19
[17] = tested on: SR
[18] = tested on: UACC-257
[19] = tested on: A549
[20] = tested on: SF-539

Measured: GI50

CCC(=O)OCN(C)c1nc(N(C)COC(=O)CC)nc(N(C)COC(=O)CC)n1
inactive: [1] 24.8 µM | [2] 24.3 µM | [3] 24.6 µM | [4] 22.9 µM | [5] > 10 µM | [6] 89.5 µM | [7] > 100 µM | [8] 13.7 µM | [9] > 100 µM | [10] > 100 µM | [11] > 100 µM | [12] 69.3 µM | [13] 27.4 µM | [14] 27.4 µM | [15] 39.8 µM | [16] > 100 µM | [17] 26.7 µM | [18] 38.9 µM

CCOC(=O)CNC(=O)C(CSCc1ccc(Br)cc1)NC(=O)CCC(N)C(=O)OCC (stereo unspecified)
inactive: [19] > 50 µM | [1] > 50 µM | [2] > 50 µM | [3] > 50 µM | [4] > 50 µM | [6] > 50 µM | [7] > 50 µM | [8] > 50 µM | [9] > 50 µM | [10] > 50 µM | [11] > 50 µM | [12] > 50 µM | [13] > 50 µM | [14] > 50 µM | [20] > 50 µM | [15] > 50 µM | [16] > 50 µM | [17] > 50 µM | [18] > 50 µM

O=c1cc(N2CCCC2)[nH]c(=O)n1-c1ccccc1
inactive: [19] > 100 µM | [1] > 100 µM | [2] > 100 µM | [3] 37 µM | [4] > 100 µM | [5] > 100 µM | [6] > 100 µM | [7] > 100 µM | [8] > 100 µM | [9] > 100 µM | [11] > 100 µM | [12] > 100 µM | [13] > 100 µM | [14] > 100 µM | [20] > 100 µM | [15] > 100 µM | [16] > 100 µM | [17] > 100 µM | [18] > 100 µM

Nc1nc(Cl)cc(NCC2(CCO)CCC2)n1
inactive: [19] > 100 µM | [1] > 100 µM | [3] > 100 µM | [4] > 100 µM | [5] > 100 µM | [6] > 100 µM | [7] > 100 µM | [8] > 100 µM | [9] > 100 µM | [10] > 100 µM | [11] > 100 µM | [12] > 100 µM | [13] > 100 µM | [14] > 100 µM | [20] > 100 µM | [15] > 100 µM | [16] > 100 µM | [17] > 100 µM | [18] > 100 µM

CC(=O)OCc1ccc(-c2nc(C#N)c(N)o2)o1
inactive: [19] > 10 µM | [1] > 10 µM | [2] > 10 µM | [3] > 10 µM | [4] > 10 µM | [5] > 10 µM | [6] > 10 µM | [7] > 10 µM | [8] > 10 µM | [9] > 10 µM | [12] > 10 µM | [13] > 10 µM | [14] > 10 µM | [20] > 10 µM | [15] > 10 µM | [16] > 10 µM | [17] > 10 µM | [18] > 10 µM

O=C1C(N2CCNCC2)=C(Cl)C(=O)c2ncccc21
inactive: [19] > 10 µM | [1] 8.59 µM | [2] > 10 µM | [3] > 10 µM | [4] 1.86 µM | [6] 3.25 µM | [7] > 10 µM | [8] > 10 µM | [9] 4.6 µM | [10] > 10 µM | [11] > 10 µM | [12] 6.19 µM | [13] > 10 µM | [14] 3.37 µM | [20] > 10 µM | [15] > 10 µM | [16] > 10 µM | [17] > 10 µM | [18] > 10 µM

O=C1CC2(CCC(O)(c3cccc4ccccc34)C(C(=O)c3cccc4ccccc34)C2)C(=O)c2ccccc2N1 (stereo unspecified)
inactive: [19] > 100 µM | [1] > 10 µM | [2] 29.6 µM | [3] 26.1 µM | [4] 23.6 µM | [5] > 10 µM | [6] 7.43 µM | [7] > 100 µM | [8] 15.6 µM | [9] 72.6 µM | [10] 39.9 µM | [11] 71.8 µM | [12] > 100 µM | [13] 91 µM | [20] 48 µM | [15] 72.8 µM | [16] 5.09 µM | [17] 14.2 µM | [18] > 100 µM
